Measured values from patent US12667572B2, “Tricyclic compounds useful in the treatment of cancer, autoimmune and inflammatory disorders” (SCHRÖDINGER, INC., priority 2021, dated 2026).
Like-named read-outs stand apart in the source and are kept apart here.

What was measured:
[1] = molecular target: T1, full-length MALT1 protein His-MALT1(1-824) (Homo sapiens, UniProt Q9UDY8); test: MALT1 protease assay, Assay 2 (1 nM MALT1, Ac-LRSR-AMC substrate); assay type: biochemical; settings: 1 nM MALT1, 50 μM Ac-LRSR-AMC, 2 h pre-incubation, 8 hr incubation at RT
T1 construct: full-length MALT1 protein His-MALT1(1-824); His (N); made in house; host or cells: baculovirus-infected insect cells
T1 sequence (Q9UDY8 1-824): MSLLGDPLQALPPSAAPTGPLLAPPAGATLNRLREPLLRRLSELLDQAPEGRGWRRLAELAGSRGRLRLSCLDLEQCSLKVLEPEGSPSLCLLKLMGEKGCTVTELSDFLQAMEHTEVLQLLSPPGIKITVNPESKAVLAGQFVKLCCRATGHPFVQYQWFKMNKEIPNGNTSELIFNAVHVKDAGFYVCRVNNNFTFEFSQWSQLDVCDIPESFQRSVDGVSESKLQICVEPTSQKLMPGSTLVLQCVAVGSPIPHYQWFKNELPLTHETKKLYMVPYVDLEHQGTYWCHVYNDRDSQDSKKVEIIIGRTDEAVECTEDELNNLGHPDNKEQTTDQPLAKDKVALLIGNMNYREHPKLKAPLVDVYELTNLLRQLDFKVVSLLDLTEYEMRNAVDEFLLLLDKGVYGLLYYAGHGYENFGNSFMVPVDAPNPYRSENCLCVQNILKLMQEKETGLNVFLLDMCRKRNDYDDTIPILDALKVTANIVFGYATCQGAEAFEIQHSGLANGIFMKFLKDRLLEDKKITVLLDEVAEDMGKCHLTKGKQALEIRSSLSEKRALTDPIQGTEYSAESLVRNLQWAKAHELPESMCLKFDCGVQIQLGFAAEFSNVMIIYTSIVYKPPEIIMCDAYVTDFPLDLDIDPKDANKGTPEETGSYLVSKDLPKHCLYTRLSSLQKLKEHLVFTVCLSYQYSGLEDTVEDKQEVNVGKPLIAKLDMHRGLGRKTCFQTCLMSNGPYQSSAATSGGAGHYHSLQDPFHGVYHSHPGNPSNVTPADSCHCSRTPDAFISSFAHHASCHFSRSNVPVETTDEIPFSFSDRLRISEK
In short: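 Full-length His-MALT1(1-824) from baculovirus-infected insect cells, pre-incubated with compound 2 h at RT (0.1% DMSO). Then 50 μM Ac-LRSR-AMC added. Buffer was Tris pH 7.5 with 600 mM sodium citrate, DTT, EDTA and BSA. Fluorescence (ex 355/em 460 nm) was read after 8 h at RT and normalized to high/low controls. IC50 from non-linear regression.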

[2] = system: IL10 secretion in OCI-LY10 cells; test: Human IL10 secretion assay, Assay 2 (MSD); assay type: cell-based; settings: 24 h incubation, Meso Scale Discovery, read-out: IL-10 Secretion IC50 [nM] Assay 2
Description: IL10 is one of the cytokines that are regulated via activation of NF-kB signaling. For example, in ABC-DLBCL cell lines, the activated NF-kB signaling leads to increased IL10 secretion. Inhibition of NF-kB signaling has been shown leading to decreased IL10 secretion.
Assay 2: OCI-LY10 cells were seeded in IMEM supplemented with 20% fetal bovine serum at 4.8×10^5 cells per 160 μL per well in 96-well V-bottom cell culture plates (corning, 3894), treated with 120 nL of 3-fold serial compound dilutions, starting at 4 mM. The final vehicle concentration was 0.075% DMSO in all wells. After a 24 h incubation, human IL-10 precoated plates (Meso Scale Discovery) were washed 3 times with PBST, and 50 μL culture medium was aspirated into the MSD plate and incubated at 4° C. overnight. The supernatant was then discarded, and the wells were washed 3 times with PB ST. SULFO-TAG Anti-human IL-10 Antibody (50×) was diluted 50-fold according to the Meso Scale Protocol, then 25 μL of SULFO-TAG Anti-human IL-10 Antibody (1×) was added. After 2 h of incubation at RT, the supernatant was discarded, and the well was washed 3 times with PBST. 2×read buffer was added and the signal was read on an MSD Sector S600. The effect of a particular compound on IL10 secretion is shown relative to the effect of DMSO; set as 100%. IC50 values (nM) were determined using 4-parametric curve-fitting.

[3] = molecular target: T1, full-length MALT1 protein His-MALT1(1-824); test: MALT1 protease assay, Assay 1 (2 nM MALT1, Ac-LRSR-AMC substrate); assay type: biochemical; settings: 2 nM MALT1, 50 μM Ac-LRSR-AMC, 2 h pre-incubation, 8 hr incubation at RT
Description: MALT1 protease activity was assessed in an in vitro assay using a tetrapeptide as substrate and full-length MALT1 protein His-MALT1(1-824) purified from baculovirus-infected insect cells. The tetrapeptide substrate is Ac-LRSR-AMC (SM Biochemicals) with Km measured at around 100 μM.
The final assay buffer includes 1 nM (Assay 2) or 2 nM (Assay 1) of MALT1 full-length protein, 50 μM Ac-LRSR-AMC substrate, 50 mM Tris pH 7.5, 600 mM Sodium Citrate, 1 mM DTT, 1 mM EDTA, and 0.05% BSA in 384-well plate format using black microtiter square well plates (Optiplate 384-F, Perkin Elmer).
Test compounds were dissolved in 100% DMSO at stock of 10 mM, with final DMSO concentration 0.1%. Test compounds were pre-incubated with MALT1 protein for 2 h at room temperature. Substrate was added after the pre-incubation and fluorescence signal was measured using Envision at excitation 355 nm and emission 460 nm after 8 hr incubation at RT. Increase in the assay signal was linear over this period and proportional with increase in the enzyme content.
The fluorescence units were transformed to percentage of remaining activity by using the high control (HC, median of fluorescence signal from wells containing MALT1 protein, substrate, and DMSO) and low control (LC, median of fluorescence signal from wells with substrate only) with the formula below: […]
IC50 and Hill coefficients were obtained using Graph Pad Prism (Graph Pad software, Inc, USA) with non-linear regression analysis.

| SMILES | IC50 [1] [nM] | IC50 ([2]; Homo sapiens) [nM] | IC50 [2] [nM] | IC50 [3] [nM] |
| --- | --- | --- | --- | --- |
| CC1(C)CC(C(=O)Nc2cnc(-n3nccn3)c(C#N)c2)c2cnc3cc(F)nn3c21 (single isomer, unassigned) [Example 89, N-(5-cyano-6-(2H-1,2,3-triazol-2-yl)pyridin-3-yl)-2-fluoro-8,8-dimethyl-7,8-dihydro-6H-cyclopenta[e]pyrazolo[1,5-a]pyrimidine-6-carboxamide] | < 10 | 100 to 1000 | – | – |
| CC1(C)CC(C(=O)Nc2cnc(OC(F)F)c(Cl)c2)c2cnc3cc(Cl)nn3c21 (single isomer, unassigned) [Example 68, 2-chloro-N-(5-chloro-6-(difluoromethoxy)pyridin-3-yl)-8,8-dimethyl-7,8-dihydro-6H-cyclopenta[e]pyrazolo[1,5-a]pyrimidine-6-carboxamide] | < 10 | 100 to 1000 | – | – |
| C[C@@]1(C(F)(F)F)C[C@H](C(=O)Nc2cnc(-n3nccn3)c(C(F)(F)F)c2)c2cnc3cc(Cl)nn3c21 (single isomer, unassigned) [Example 56, N-(6-(2H-1,2,3-triazol-2-yl)-5˜(trifluoromethyl)pyridin-3-yl)-2-chloro-8-methyl-8-(trifluoromethyl)-7,8-dihydro-6H-cyclopenta[e]pyrazolo[1,5-a]pyrimidine-6-carboxamide] | < 10 | – | 100 to 1000 | – |
| CC1(C)CC(C(=O)Nc2cnc(-n3nccn3)c(Cl)c2)c2cnn3cc(Cl)nc3c21 (single isomer, unassigned) [Example 195, 2-chloro-N-(5-chloro-6-(2H-1,2,3-triazol-2-yl)pyridin-3-yl)-9,9-dimethyl-8,9-dihydro-7H-cyclopenta[d]imidazo[1,2-b]pyridazine-7-carboxamide] | < 10 | 10 to 100 | – | – |
| C[C@@H](O)c1cnn(-c2ncc(NC(=O)[C@H]3CC(C)(C)c4c3cnc3cc(Cl)nn43)cc2Cl)n1 (single isomer, unassigned) [Example 51, 2-chloro-N-(5-chloro-6-(4-(1-hydroxyethyl)-2H-1,2,3-triazol-2-yl)pyridin-3-yl)-8,8-dimethyl-7,8-dihydro-6H-cyclopenta[e]pyrazolo[1,5-a]pyrimidine-6-carboxamide] | < 10 | 100 to 1000 | – | – |
| CC1(C)CC(C(=O)Nc2cnc(OC3CC3)c(Cl)c2)c2cnc3cc(Cl)nn3c21 (single isomer, unassigned) [Example 75, 2-chloro-N-(5-chloro-6-cyclopropoxypyridin-3-yl)-8,8-dimethyl-7,8-dihydro-6H-cyclopenta[e]pyrazolo[1,5-a]pyrimidine-6-carboxamide] | 10 to 100 | 100 to 1000 | – | – |
| CC1(C)CC(C(=O)Nc2cnc(OC3CC3)c(C#N)c2)c2cnc3cc(F)nn3c21 (single isomer, unassigned) [Example 81, N-(5-cyano-6-cyclopropoxypyridin-3-yl)-2-fluoro-8,8-dimethyl-7,8-dihydro-6H-cyclopenta[e]pyrazolo[1,5-a]pyrimidine-6-carboxamide] | 10 to 100 | 100 to 1000 | – | – |
| CN(C(=O)c1ncc(NC(=O)[C@H]2CC(C)(C)c3c2cnc2cc(Cl)nn32)cc1C(F)F)C1CC1 (single isomer, unassigned) [Example 73, 2-chloro-N-(6-(cyclopropyl(methyl)carbamoyl)-5-(difluoromethyl)pyridin-3-yl)-8,8-dimethyl-7,8-dihydro-6H-cyclopenta[e]pyrazolo[1,5-a]pyrimidine-6-carboxamide] | < 10 | 10 to 100 | – | – |
| C[C@H](O)c1cnn(-c2ncc(NC(=O)[C@H]3CC(C)(C)c4c3cnc3cc(Cl)nn43)cc2Cl)n1 (single isomer, unassigned) [Example 49, 2-chloro-N-(5-chloro-6-(4-(1-hydroxyethyl)-2H-1,2,3-triazol-2-yl)pyridin-3-yl)-8,8-dimethyl-7,8-dihydro-6H-cyclopenta[e]pyrazolo[1,5-a]pyrimidine-6-carboxamide] | < 10 | 100 to 1000 | – | – |
| CC1(C)CC(C(=O)Nc2cnc(OC(F)F)c(C#N)c2)c2cnc3cc(F)nn3c21 (single isomer, unassigned) [Example 84, N-(5-cyano-6-(difluoromethoxy)pyridin-3-yl)-2-fluoro-8,8-dimethyl-7,8-dihydro-6H-cyclopenta[e]pyrazolo[1,5-a]pyrimidine-6-carboxamide] | < 10 | 10 to 100 | – | – |
| Cn1nnnc1-c1ncc(NC(=O)C2CC(C)(C)c3c2cnc2cc(Cl)nn32)cc1Cl (single isomer, unassigned) [Example 145, 2-chloro-N-(5-chloro-6-(1-methyl-1H-tetrazol-5-yl)pyridin-3-yl)-8,8-dimethyl-7,8-dihydro-6H-cyclopenta[e]pyrazolo[1,5-a]pyrimidine-6-carboxamide] | < 10 | 100 to 1000 | – | – |
| CC1(C)CC(C(=O)Nc2cnc(OC(F)F)c(C#N)c2)c2cnc3c(F)c(F)nn3c21 (single isomer, unassigned) [Example 91, N-(5-cyano-6-(difluoromethoxy)pyridin-3-yl)-2,3-difluoro-8,8-dimethyl-7,8-dihydro-6H-cyclopenta[e]pyrazolo[1,5-a]pyrimidine-6-carboxamide] | 10 to 100 | 100 to 1000 | – | – |
| Cc1cc2ncc3c(n2n1)C(C)(C)C[C@H]3C(=O)Nc1cnc(-n2nccn2)c(Cl)c1 (single isomer, unassigned) [Example 5, N-(5-chloro-6-(2H-1,2,3-triazol-2-yl)pyridin-3-yl)-2,8,8-trimethyl-7,8-dihydro-6H-cyclopenta[e]pyrazolo[1,5-a]pyrimidine-6-carboxamide] | – | – | – | ≥ 1000 |
| CC1(C)CC(C(=O)Nc2cnc(-n3nccn3)c(Cl)c2)c2ccc3cc(O)nn3c21 (stereo not drawn) [Example 41, N-(5-chloro-6-(2H-1,2,3-triazol-2-yl)pyridin-3-yl)-2-hydroxy-8,8-dimethyl-7,8-dihydro-6H-cyclopenta[e]pyrazolo[1,5-a]pyridine-6-carboxamide] | – | – | – | 100 to 1000 |
| CC1(C)CC(C(=O)Nc2cnc(-n3nccn3)c(Cl)c2)c2cnc3cc(C(F)(F)F)nn3c21 (stereo not drawn) [Example 40, N-(5-chloro-6-(2H-1,2,3-triazol-2-yl)pyridin-3-yl)-8,8-dimethyl-2-(trifluoromethyl)-7,8-dihydro-6H-cyclopenta[e]pyrazolo[1,5-a]pyrimidine-6-carboxamide] | – | – | – | 10 to 100 |
